Our source for the AC50, IC50 and EC50 values is ChEMBL document CHEMBL1201862, “PubChem BioAssay data set” (2004).

Targets include Cytochrome P450 3A4 (Homo sapiens, UniProt P08684); Cytochrome P450 2D6 (Homo sapiens, UniProt P10635); Cytochrome P450 2C9 (Homo sapiens, UniProt P11712).
Series [1] concerns the target T1, Rac GTPase-activating protein 1 (Homo sapiens, UniProt Q9H0H5).
T1 sequence (Q9H0H5 whole entry): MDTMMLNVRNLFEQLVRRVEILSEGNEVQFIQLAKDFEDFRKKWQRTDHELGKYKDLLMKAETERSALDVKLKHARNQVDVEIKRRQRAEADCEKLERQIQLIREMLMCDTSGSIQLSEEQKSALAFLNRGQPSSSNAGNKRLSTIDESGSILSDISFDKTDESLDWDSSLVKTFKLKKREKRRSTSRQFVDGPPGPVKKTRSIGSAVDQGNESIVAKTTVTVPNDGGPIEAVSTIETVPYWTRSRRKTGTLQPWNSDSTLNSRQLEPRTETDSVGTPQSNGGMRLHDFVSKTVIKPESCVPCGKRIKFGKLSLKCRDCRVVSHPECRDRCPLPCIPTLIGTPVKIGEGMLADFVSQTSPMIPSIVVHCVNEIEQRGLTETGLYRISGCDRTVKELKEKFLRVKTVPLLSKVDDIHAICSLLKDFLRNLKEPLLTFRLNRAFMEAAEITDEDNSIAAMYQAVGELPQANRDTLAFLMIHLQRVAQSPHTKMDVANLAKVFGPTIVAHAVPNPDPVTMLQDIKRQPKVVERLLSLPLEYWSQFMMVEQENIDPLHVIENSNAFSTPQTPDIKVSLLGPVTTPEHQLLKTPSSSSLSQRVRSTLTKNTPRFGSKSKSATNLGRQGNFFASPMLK
As to the kind of experiment: blockers of MgcRacGAP-driven Rac1 GTP hydrolysis – biochemical, ADP Hunter fluorescence, primary and confirmatory, confirmation (AID 624330). The series is classed as functional.

In another series the target is Cytochrome P450 2C19 (Homo sapiens, UniProt P33261). Briefly: Cytochrome panel assay with activity outcomes. Panel member name: p450-cyp2c19 Compounds with AC50 equal or less than 10 uM are considered active. It is filed as functional.
Sequence of Cytochrome P450 2C19 (P33261 whole entry): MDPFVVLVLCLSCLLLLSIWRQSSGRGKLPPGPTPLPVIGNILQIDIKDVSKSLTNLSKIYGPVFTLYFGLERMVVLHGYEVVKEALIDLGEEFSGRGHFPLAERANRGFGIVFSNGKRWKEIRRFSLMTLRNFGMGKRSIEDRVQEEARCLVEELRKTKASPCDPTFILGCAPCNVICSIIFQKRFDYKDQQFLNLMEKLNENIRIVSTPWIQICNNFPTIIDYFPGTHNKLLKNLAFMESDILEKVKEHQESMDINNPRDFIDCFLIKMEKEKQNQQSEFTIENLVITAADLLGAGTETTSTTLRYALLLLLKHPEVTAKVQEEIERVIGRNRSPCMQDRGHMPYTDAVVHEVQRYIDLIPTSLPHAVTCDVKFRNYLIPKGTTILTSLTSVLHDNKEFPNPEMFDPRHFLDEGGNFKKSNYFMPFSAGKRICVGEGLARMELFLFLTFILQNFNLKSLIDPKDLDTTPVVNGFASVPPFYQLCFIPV
Series [2] can be described thus: Luminescence Cell-Based Dose Response HTS to Identify Inhibitors of 5'UTR Stem-Loop Driven Prion Protein mRNA Translation in H4 Neuroglioblastoma Cells. [Related pubchem assays: 1827 (Project Summary), 1813 (Primary HTS)]. The series is classed as functional.
Series [3] can be described thus: alpha-synuclein stem-loop luciferase translation blockers – H4 neuroglioma cells, luminescence, confirmation (AID 1988). It is filed as functional, cell-based.
Series [4] can be described thus: luciferase reporter signal suppression in cells – H4 neuroglioma cells, luminescence, dose response (AID 1990). The series is classed as functional, cell-based. In general terms: A reporter such as luciferase makes a cellular process visible.
The nature of series [5]: viability of HCT116 lacking mutant beta-catenin – cell-based, human colon tumor, dose response (AID 1045).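 Also: HCT116 colon tumor cells with beta catenin knocked out; cells exposed to compound for 60 hours.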 It is filed as functional.
Series [6] can be described thus: viability of PTEN-deleted HCT116 cells – cell-based, HCT116 PTEN knockout, dose response (AID 1047).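 Also: HCT116 colon tumor cells with PTEN knocked out; cells exposed to compound for 60 hours before readout; potency for loss of cell viability measured by luminescence.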 The series is classed as functional.
Another series relates to H4. As to the kind of experiment: Luminescence Cell-Based Dose Response HTS to Identify Activators of 5'UTR Stem-Loop Driven Prion Protein mRNA Translation in H4 Neuroglioblastoma Cells. [Related pubchem assays: 1829 (Project Summary), 1814 (Primary HTS)]. The settings on record: Homo sapiens. It is filed as functional.
Series [7] can be described thus: Luminescence Cell-Based Dose Confirmation HTS to Identify Activators of 5'UTR Stem-Loop Driven Alpha-Synuclein mRNA Translation in H4 Neuroglioblastoma Cells. [Related pubchem assays: 1829 (Project Summary), 1814 (Primary HTS)]. It is filed as functional.
Series [8] in a line: Luminescence Cell-Based Dose Response HTS to Identify Activators of Luciferase Translation or Activity in H4 […] Cells. [Related pubchem assays: 1829 (Project Summary), 1814 (Primary HTS)]. The series is classed as functional.
Series [9] is described as follows: Trypanosoma cruzi growth suppression in host cells – NIH3T3 host cells, beta-gal luminescence, confirmation (AID 2044).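 Also: intracellular parasites grown in NIH/3T3 mouse fibroblasts as host cells; luminescent beta-galactosidase reporter signal from transgenic T. cruzi replicating inside host cells; inhibitors lower the luminescence signal.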 It is filed as functional, cell-based.
Series [10] is described as follows: NIH3T3 cell viability loss – ATP luminescence, mouse fibroblasts, counter-screen, dose response (AID 2010).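 Also: cells exposed to compound for about 90 hours before reading.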 It is filed as functional, cell-based. On the technique in general: The purpose of a counterscreen is to sort out artefacts and off-target activity.
The target in a further series is T2, Cytochrome P450 1A2 (Homo sapiens, UniProt P05177).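 Also: PubChem cytochrome P450 panel assay, CYP1A2 panel member.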
T2 sequence (P05177 whole entry): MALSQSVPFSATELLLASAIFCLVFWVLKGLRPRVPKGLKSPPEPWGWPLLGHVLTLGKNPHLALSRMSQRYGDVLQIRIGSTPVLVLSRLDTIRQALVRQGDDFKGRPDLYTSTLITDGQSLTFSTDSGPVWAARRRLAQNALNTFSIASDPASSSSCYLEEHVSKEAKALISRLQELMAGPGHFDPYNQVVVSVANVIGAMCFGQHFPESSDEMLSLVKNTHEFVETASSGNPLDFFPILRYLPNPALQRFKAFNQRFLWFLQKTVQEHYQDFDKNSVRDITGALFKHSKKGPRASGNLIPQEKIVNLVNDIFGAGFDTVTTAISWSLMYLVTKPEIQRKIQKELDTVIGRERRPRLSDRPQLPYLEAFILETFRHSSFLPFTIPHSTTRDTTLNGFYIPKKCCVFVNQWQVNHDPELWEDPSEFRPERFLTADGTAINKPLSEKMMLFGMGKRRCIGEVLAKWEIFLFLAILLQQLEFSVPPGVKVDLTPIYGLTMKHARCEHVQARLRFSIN

Molecules are shown by their SMILES. Values joined by “and” are separate entries in the source; they are usually repeats but may differ in a detail not shown here. Equal values may be shown once. Active and inactive are the calls of the source. A value given as a limit tells only on which side of the number the result lay.

Sequence of Cytochrome P450 3A4 (P08684 whole entry): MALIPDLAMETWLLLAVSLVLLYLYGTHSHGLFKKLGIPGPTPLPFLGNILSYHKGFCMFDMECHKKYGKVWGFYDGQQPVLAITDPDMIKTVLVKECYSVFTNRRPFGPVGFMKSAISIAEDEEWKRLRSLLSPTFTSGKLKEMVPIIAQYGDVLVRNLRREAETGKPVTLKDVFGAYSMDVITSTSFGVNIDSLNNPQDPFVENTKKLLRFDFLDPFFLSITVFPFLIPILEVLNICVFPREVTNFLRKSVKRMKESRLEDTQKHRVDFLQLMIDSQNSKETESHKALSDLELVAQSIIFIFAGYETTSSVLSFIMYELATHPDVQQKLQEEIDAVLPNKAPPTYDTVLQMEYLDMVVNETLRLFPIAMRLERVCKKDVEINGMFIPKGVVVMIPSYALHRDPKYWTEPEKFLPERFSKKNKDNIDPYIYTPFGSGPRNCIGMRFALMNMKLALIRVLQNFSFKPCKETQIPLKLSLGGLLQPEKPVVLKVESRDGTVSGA
Sequence of Cytochrome P450 2D6 (P10635 whole entry): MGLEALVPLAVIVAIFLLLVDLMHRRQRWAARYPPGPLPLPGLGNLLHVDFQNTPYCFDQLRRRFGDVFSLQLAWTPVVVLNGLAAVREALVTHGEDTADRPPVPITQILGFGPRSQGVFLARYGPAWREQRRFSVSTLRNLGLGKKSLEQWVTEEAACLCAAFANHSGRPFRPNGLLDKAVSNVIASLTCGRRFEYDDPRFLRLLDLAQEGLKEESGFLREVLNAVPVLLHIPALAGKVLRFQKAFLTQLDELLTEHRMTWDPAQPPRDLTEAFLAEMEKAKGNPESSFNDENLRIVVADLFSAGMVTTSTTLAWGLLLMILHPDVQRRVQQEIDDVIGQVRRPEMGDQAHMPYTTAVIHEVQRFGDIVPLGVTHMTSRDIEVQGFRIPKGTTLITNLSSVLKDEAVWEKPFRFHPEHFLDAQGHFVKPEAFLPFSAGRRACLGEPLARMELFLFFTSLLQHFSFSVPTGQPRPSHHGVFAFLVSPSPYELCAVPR
Sequence of Cytochrome P450 2C9 (P11712 whole entry): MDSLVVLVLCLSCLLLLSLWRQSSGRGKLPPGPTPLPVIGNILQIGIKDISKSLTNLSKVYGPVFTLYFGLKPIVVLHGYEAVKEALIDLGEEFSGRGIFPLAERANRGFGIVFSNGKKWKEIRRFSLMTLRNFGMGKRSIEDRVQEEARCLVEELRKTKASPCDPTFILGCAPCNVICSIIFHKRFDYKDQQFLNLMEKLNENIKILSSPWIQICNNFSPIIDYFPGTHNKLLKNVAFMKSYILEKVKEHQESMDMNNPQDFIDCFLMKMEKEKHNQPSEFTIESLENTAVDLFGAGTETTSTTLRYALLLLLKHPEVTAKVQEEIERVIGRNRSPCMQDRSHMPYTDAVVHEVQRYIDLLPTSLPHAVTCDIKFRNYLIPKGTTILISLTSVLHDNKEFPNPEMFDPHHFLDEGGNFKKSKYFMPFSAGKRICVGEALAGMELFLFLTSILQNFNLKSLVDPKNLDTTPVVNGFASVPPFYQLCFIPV

Take `O=C(Nc1ccccc1[N+](=O)[O-])C1C(c2ccccc2)=C1c1ccccc1`: on Cytochrome P450 3A4, the AC50 (in general, the midpoint of the concentration-response curve, whichever way the signal moves) is 20 µM (inconclusive).
For the molecule `CN(C)c1ccc(/C=N/O)cc1`, the IC50 (usually the concentration that inhibits the measured activity by half) in series [1] is 21.8 µM (active).
On to `CCCCn1c(=N)n(CC(=O)c2ccco2)c2ccccc21`, for which the AC50 is 31.6 µM (inconclusive) at Cytochrome P450 3A4 and 15.8 µM (inconclusive) at Cytochrome P450 2C19 (read-out: AC50).
Take `O=C(NCCC[N+]1=CC=N[C@H]1c1ccccc1)N1CCCc2nc(-c3ccc(Br)cc3)ccc21`: the AC50 on Cytochrome P450 3A4 is 3.16 µM (inconclusive).
For `CCc1nnc(NC(=O)c2ccc(S(=O)(=O)NC3CCCCC3)cc2)s1`, the concentration for a half-maximal effect (EC50) in series [2], in series [3] and in series [4] was > 120 µM (not active) each time.
Consider `O=C1[C@@H]2C=CC=CC2=NC(=S)N1CCN1CCC(=C(c2ccc(F)cc2)c2ccc(F)cc2)CC1`, for which the AC50 at Cytochrome P450 3A4 is 3.16 µM (inconclusive); at Cytochrome P450 2C19 (read-out: AC50), 10 µM (inconclusive).
As for `CCC1CCCCN1C(=O)CSc1nc2c3ccccc3nc-2c(O)n1C` (stereo not given), the EC50 (commonly the concentration at which the effect is half-maximal) in [5] was 21.2 µM (active); in [6], 21.9 µM (active).
For the molecule `C/C(=N\NC(=O)C1=NNC(=O)C1C)c1cccs1` (stereo not given), the EC50 is 29.9 µM (active) in the series on H4, 13 µM (active) in [7] and > 120 µM (not active) in [8].
As to `Cc1ccc(C23CC4CC(CC(NC(=O)N5CCN(C)CC5)(C4)C2)C3)cc1`, the EC50 is 17.7 µM (active) in series [5] and 18 µM (active) in [6].
`Clc1ccccc1-c1nnc2sc(-c3ccc4c(c3)OCO4)nn12`: the EC50 in the series on H4 is 57.6 µM (inconclusive); in [7] it was > 120 µM (not active); in series [8], 10.9 µM (active).
For `N#Cc1c(N2CCCC2)nsc1-c1ccccc1` the same measures were 23.2 µM (active), 7.09 µM (active) and 12.5 µM (active).
Regarding `CSC1=N/C(=C\c2ccc(C)cc2)C(=O)S1`, on Cytochrome P450 3A4, the AC50 is 39.8 µM (inconclusive).
In the case of `CCc1cc2c(=O)c(-c3ccc4c(c3)OCCO4)c(C)oc2cc1OS(C)(=O)=O`, the figures for the EC50 in series [5] and in [6] were 28.1 µM (active) and 21.3 µM (active), respectively.
For the molecule `Cc1noc(C)c1-c1cc(NCc2cccs2)ncn1`, the figures for the AC50 at Cytochrome P450 3A4, on Cytochrome P450 2D6 and at Cytochrome P450 2C19 were 31.6 µM (inconclusive), 20 µM (inconclusive) and “inconclusive”, respectively.
As to `Cc1cc(C)c(NC=C2C(=O)NC(=O)NC2=O)c(C)c1`, the results for the EC50 in [2] and in [3] were > 60 µM (not active) and > 120 µM (not active), respectively.
In the case of `N[N-][C+]1c2ccccc2N[C@H]1OC(=O)Nc1cccc(Cl)c1`, the values for the AC50 on Cytochrome P450 3A4, on Cytochrome P450 2D6 and at Cytochrome P450 2C19 (read-out: AC50) were 5.01 µM (inconclusive), 3.98 µM (inconclusive) and 3.16 µM (inconclusive), respectively.
With `C/C(=N/NC(=O)C1CCN(S(=O)(=O)c2ccc(C)cc2)CC1)c1cccc([N+](=O)[O-])c1`, the EC50 is 71 µM (active) in series [2], 48 µM (active) in [3] and 22.9 µM (active) in [4].
As for `CCCCNC(=O)CSc1nc2cc(OC)c(OC)cc2c(=O)n1Cc1ccc(OC)cc1`, the EC50 is 10.3 µM (active) in series [5] and 6.66 µM (active) in [6]. The AC50 at Cytochrome P450 2C19 (read-out: AC50) is 6.31 µM (inconclusive).
Take `CCOC(=O)/C(C#N)=C\c1ccc(OCC(=O)Nc2ccc(C)cc2C)c(OC)c1`: the AC50 on Cytochrome P450 3A4 was 10 µM (inconclusive); on Cytochrome P450 2C9 it was 25.1 µM (inconclusive).
With `CC(C)[C@@H](OCc1ccccc1)[C@H](C)/C=N\O[C@@H](C)c1cn([C@H](CO)Cc2ccccc2)nn1`, the AC50 on Cytochrome P450 3A4 was 3.16 µM (inconclusive) and 3.98 µM (inconclusive).
In the case of `Cc1ccc(S(=O)(=O)N2CCC(=O)N(C(COCc3ccc(Cl)cc3)Cc3ccccc3)CC2)cc1` (stereo not given), the EC50 in series [2] was 39.1 µM (active); in series [3], 36.4 µM (active); in [4] it was > 120 µM (not active).
As for `[O-][n+]1c2c([n+]([O-])c3cc(N4CCCC4)c(F)cc31)CCCC2`, the EC50 is 7.53 µM (active) in the series on H4, > 60 µM (not active) in series [7] and 20.3 µM (active) in series [8].
Regarding `CCCn1nc(Oc2nc(NCC)nc(NC(C)C)n2)ccc1=O`, the values for the AC50 on Cytochrome P450 3A4 and on Cytochrome P450 2C19 (read-out: AC50) were 0.00562 µM (inconclusive) and 39.8 µM (inconclusive), respectively.
Turning to `COc1cc2c(=O)n(Cc3ccco3)c(=O)n(CC(=O)c3ccc(Br)cc3)c2cc1OC`, the EC50 was 9.3 µM (active) in series [5] and 8.57 µM (active) in series [6].
With `C=CCc1cc(C=O)cc(OC)c1OCc1ccc(Cl)cc1`, on Cytochrome P450 3A4, the AC50 was 17.8 µM (inconclusive).
Regarding `O=C(Cn1cc(SCc2ccccc2Cl)c2ccccc21)N1CCOCC1`, the EC50 in the series with H4 was 21 µM (active); in series [7], 23.8 µM (active); in series [8], 8.21 µM (active).
Regarding `Cc1cnc(NC(=O)C(C)N2CCN(C)CC2)s1` (stereo not given), in series [1], the IC50 was 80.4 µM (active).
On to `COc1ccc(-c2cn(CCO)nc2-c2ccc(OC)cc2)cc1`, for which the EC50 in [2] is > 120 µM (not active); in [3], > 120 µM (not active); in [4], 16.1 µM (active).
As to `CC(=O)N1CCC2(CCCN(C(=O)Nc3cccc(F)c3)C2)CC1`, the AC50 at Cytochrome P450 3A4 was 31.6 µM (inconclusive).
As to `COc1cccc(NC(=O)COC(=O)c2c3c(nc4ccccc24)CCC(C)C3)c1` (stereo not given), the EC50 in series [5] was 14.4 µM (active); in series [9], 2.18 µM (active); in series [10], > 60 µM (not active); in series [6], 8.9 µM (active).
In the case of `CCN1CCN(CC(=O)Nc2ccc(C)c(Br)c2)CC1`, in series [1], the IC50 was 95.7 µM (active).
Take `COc1cc(CC(=O)OCC(=O)Nc2ccc(N(C)C)cc2)cc(OC)c1OC`: the 50% inhibitory concentration (IC50) in series [1] is 53.3 µM (active).
As for `Cc1ccc(NC(=O)Cc2nc(CSc3nnc(-c4ccc5c(c4)OCO5)o3)cs2)cc1`, the results for the EC50 (in the series on H4; in series [7]; in series [8]) were 6.97 µM (active), 82.5 µM (active) and 53.6 µM (active), respectively.
With `COc1cc(C(C)=NNC(=O)c2ccncc2)ccc1O`, the IC50 in series [1] was 49.6 µM (active).
Consider `CC(=O)/C(=C\c1ccccc1F)C(=O)c1ccccc1`, for which the AC50 at Cytochrome P450 3A4 is 3.16 µM (inconclusive); on Cytochrome P450 1A2 it was 5.01 µM (inconclusive); at Cytochrome P450 2C9 it was 6.31 µM (inconclusive).
Consider `O=C(NCCCN1CCOCC1)c1cc2c(s1)CSC2`, for which the AC50 at Cytochrome P450 3A4 was 15.8 µM (inconclusive).
In the case of `CN(C)c1cc(NC(=O)CN2CCCC2)c2ccccc2n1`, the IC50 in series [1] is 41.6 µM (active).
As to `O=C(Cn1ccs/c1=N/C(=O)C(F)(F)F)c1ccccc1`, the EC50 with H4 is 81.7 µM (inconclusive); in series [7] it was 56.9 µM (active); in [8], 47.9 µM (active).
